Assay results published in ChEMBL document CHEMBL4819140, “A novel GSK-3 inhibitor binds to GSK-3β via a reversible, time and Cys-199-dependent mechanism” (Bioorg Med Chem, 2021).
pIC50: −log10 of the molar value. Blank lines part the entries; values can stand above or below the compound they belong to. The source made the active and inactive calls. The calls are words filed in the database; no cut-off is given here.

How the values were obtained:
[1] = target: Dual specificity mitogen-activated protein kinase kinase 3 (Homo sapiens) (UniProt P46734); experiment: Inhibition of human recombinant MAP2K3 by Lanthascreen assay; conditions: concentration not given here
[2] = target: Ribosomal protein S6 kinase alpha-3 (Homo sapiens) (UniProt P51812); experiment: Inhibition of human recombinant RSK2 in presence of ATP by Z-lyte kinase assay; conditions: concentration not given here
[3] = target: Dual specificity mitogen-activated protein kinase kinase 2 (Homo sapiens) (UniProt P36507); experiment: Inhibition of human recombinant MAP2K2 by Lanthascreen assay; conditions: concentration not given here
[4] = target: Mitogen-activated protein kinase kinase kinase 20 (Homo sapiens) (UniProt Q9NYL2); experiment: Inhibition of human recombinant ZAK by Lanthascreen assay; conditions: concentration not given here
[5] = target: Dual specificity mitogen-activated protein kinase kinase 1 (Homo sapiens) (UniProt Q02750); experiment: Inhibition of human recombinant MAP2K1 by Lanthascreen assay; conditions: concentration not given here
[6] = target: T1, Glycogen synthase kinase-3 beta (Homo sapiens, UniProt P49841); experiment: Inhibition of human GSK-3beta incubated with substrate in presence of ATP measured by serial dilution assay
Target sequence in this assay (P49841 whole entry): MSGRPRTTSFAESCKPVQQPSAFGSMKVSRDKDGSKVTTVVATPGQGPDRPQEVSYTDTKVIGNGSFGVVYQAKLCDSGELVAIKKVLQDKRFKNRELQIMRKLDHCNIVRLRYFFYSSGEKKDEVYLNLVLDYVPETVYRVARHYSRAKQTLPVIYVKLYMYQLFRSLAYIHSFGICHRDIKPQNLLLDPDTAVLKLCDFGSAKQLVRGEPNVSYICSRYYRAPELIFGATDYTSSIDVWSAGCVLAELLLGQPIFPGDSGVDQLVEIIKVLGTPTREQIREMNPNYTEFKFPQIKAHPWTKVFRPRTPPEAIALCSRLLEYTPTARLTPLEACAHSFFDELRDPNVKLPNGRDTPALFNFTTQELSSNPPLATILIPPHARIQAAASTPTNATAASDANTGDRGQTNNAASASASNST

[7] = target: T1, Glycogen synthase kinase-3 beta; experiment: Inhibition of human GSK-3beta preincubated for 3 hrs followed by ATP and substrate addition measured by serial dilution assay
Target sequence in this assay (P49841 whole entry): as above

[8] = target: Vascular endothelial growth factor receptor 1 (Homo sapiens) (UniProt P17948); experiment: Inhibition of human recombinant FLT1 in presence of ATP by Z-lyte kinase assay; conditions: concentration not given here
[9] = target: Mitogen-activated protein kinase kinase kinase 7 (Homo sapiens) (UniProt O43318); experiment: Inhibition of human recombinant MAP3K7 by Lanthascreen assay; conditions: concentration not given here
[10] = target: Platelet-derived growth factor receptor beta (Homo sapiens) (UniProt P09619); experiment: Inhibition of human recombinant PDGFRB in presence of ATP by Z-lyte kinase assay; conditions: concentration not given here
[11] = target: MAP kinase-interacting serine/threonine-protein kinase 1 (Homo sapiens) (UniProt Q9BUB5); experiment: Inhibition of human recombinant MNK1 in presence of ATP by Z-lyte kinase assay; conditions: concentration not given here
[12] = target: Cyclin-dependent kinase-like 5 (Homo sapiens) (UniProt O76039); experiment: Inhibition of human recombinant CDKL5 in presence of ATP by Z-lyte kinase assay; conditions: concentration not given here
[13] = target: Platelet-derived growth factor receptor alpha (Homo sapiens) (UniProt P16234); experiment: Inhibition of human recombinant PDGFRA in presence of ATP by Z-lyte kinase assay; conditions: concentration not given here
[14] = target: T1, Glycogen synthase kinase-3 beta; conditions: dose 100.0 nM
Target sequence in this assay (P49841 whole entry, looked up): as the sequence (P49841 whole entry) above

[15] = target: Mitogen-activated protein kinase 1 (Homo sapiens) (UniProt P28482); experiment: Inhibition of human recombinant MAPK1 in presence of ATP by Z-lyte kinase assay; conditions: concentration not given here
[16] = target: T1, Glycogen synthase kinase-3 beta; experiment: Inhibition of human GSK-3beta assessed as decrease in relative fluorescence unit measured upto 60 mins by kinase-profiling analysis; conditions: time min <=60, TDE = time-dependent effect
Target sequence in this assay (P49841 whole entry, looked up): as the sequence (P49841 whole entry) above

[17] = target: T1, Glycogen synthase kinase-3 beta; experiment: Reversible inhibition of recombinant human GSK-3beta at 10 uM preincubated for 3 hrs followed by diluted with substrate and ATP master mix solution measured first 30 mins by jump dilution assays; conditions: time 3.5 hrs
Target sequence in this assay (P49841 whole entry, looked up): as the sequence (P49841 whole entry) above

[18] = target: T1, Glycogen synthase kinase-3 beta; conditions: dose 200.0 nM
Target sequence in this assay (P49841 whole entry, looked up): as the sequence (P49841 whole entry) above

[19] = target: Mast/stem cell growth factor receptor Kit (Homo sapiens) (UniProt P10721); experiment: Inhibition of human recombinant KIT in presence of ATP by Z-lyte kinase assay; conditions: concentration not given here
[20] = target: Serine/threonine-protein kinase D2 (Homo sapiens) (UniProt Q9BZL6); experiment: Inhibition of human recombinant PKD2 in presence of ATP by Z-lyte kinase assay; conditions: concentration not given here
[21] = target: Dual specificity mitogen-activated protein kinase kinase 1 (Homo sapiens) (UniProt Q02750); experiment: Inhibition of human recombinant MAP2K1 in presence of ATP by Z-lyte kinase assay; conditions: concentration not given here
[22] = target: Ribosomal protein S6 kinase alpha-2 (Homo sapiens) (UniProt Q15349); experiment: Inhibition of human recombinant RSK3 in presence of ATP by Z-lyte kinase assay; conditions: concentration not given here
[23] = target: Receptor-type tyrosine-protein kinase FLT3 (Homo sapiens) (UniProt P36888); experiment: Inhibition of human recombinant FLT3 in presence of ATP by Z-lyte kinase assay; conditions: concentration not given here
[24] = target: T1, Glycogen synthase kinase-3 beta; experiment: Inhibition of human recombinant GSK3B in presence of ATP by Z-lyte kinase assay; conditions: concentration not given here
Target sequence in this assay (P49841 whole entry, looked up): as the sequence (P49841 whole entry) above

[25] = target: MAP kinase-activated protein kinase 5 (Homo sapiens) (UniProt Q8IW41); experiment: Inhibition of human recombinant PRAK in presence of ATP by Z-lyte kinase assay; conditions: concentration not given here
[26] = target: T1, Glycogen synthase kinase-3 beta; experiment: Reversible inhibition of recombinant human GSK-3beta at 70 uM preincubated for 3 hrs followed by diluted with substrate and ATP master mix solution measured upto 1.5 hrs by jump dilution assays relative to control; conditions: time 4.5 hrs
Target sequence in this assay (P49841 whole entry, looked up): as the sequence (P49841 whole entry) above

[27] = target: Cyclin-G-associated kinase (Homo sapiens) (UniProt O14976); experiment: Inhibition of human recombinant GAK by Lanthascreen assay; conditions: concentration not given here
[28] = target: Serine/threonine-protein kinase D3 (Homo sapiens) (UniProt O94806); experiment: Inhibition of human recombinant PKD3 in presence of ATP by Z-lyte kinase assay; conditions: concentration not given here
[29] = target: Glycogen synthase kinase-3 alpha (Homo sapiens) (UniProt P49840); experiment: Inhibition of human recombinant GSK3A in presence of ATP by Z-lyte kinase assay; conditions: concentration not given here
[30] = target: Glycogen synthase kinase-3 beta (Homo sapiens, UniProt P49841, C199A); experiment: Inhibition of human GSK-3beta C199A mutant incubated with substrate in presence of ATP measured by serial dilution assay
[31] = target: Dual specificity mitogen-activated protein kinase kinase 5 (Homo sapiens) (UniProt Q13163); experiment: Inhibition of human recombinant MAP2K5 by Lanthascreen assay; conditions: concentration not given here
[32] = target: Serine/threonine-protein kinase NLK (Homo sapiens) (UniProt Q9UBE8); experiment: Inhibition of human recombinant NLK by Lanthascreen assay; conditions: concentration not given here
[33] = target: AP2-associated protein kinase 1 (Homo sapiens) (UniProt Q2M2I8); experiment: Inhibition of human recombinant AAK1 by Lanthascreen assay; conditions: concentration not given here
[34] = target: Dual specificity mitogen-activated protein kinase kinase 2 (Homo sapiens) (UniProt P36507); experiment: Inhibition of human recombinant MAP2K2 in presence of 100 uM ATP by Z-lyte kinase assay
[35] = Thiol reactivity of the compound with tri-butylphosphine by HPLC analysis; type: physicochemical
[36] = target: TGF-beta receptor type-2 (Homo sapiens) (UniProt P37173); experiment: Inhibition of human recombinant TGFBR2 by Lanthascreen assay; conditions: concentration not given here
[37] = target: Dual specificity mitogen-activated protein kinase kinase 4 (Homo sapiens) (UniProt P45985); experiment: Inhibition of human recombinant MAP2K4 by Lanthascreen assay; conditions: concentration not given here
[38] = target: Ribosomal protein S6 kinase alpha-1 (Homo sapiens) (UniProt Q15418); experiment: Inhibition of human recombinant RSK1 in presence of ATP by Z-lyte kinase assay; conditions: concentration not given here
[39] = target: T1, Glycogen synthase kinase-3 beta; experiment: Reversible inhibition of recombinant human GSK-3beta at 10 uM preincubated for 3 hrs followed by diluted with substrate and ATP master mix solution measured upto 1.5 hrs by jump dilution assays; conditions: time 4.5 hrs, TDE = time-dependent effect
[40] = target: Vascular endothelial growth factor receptor 3 (Homo sapiens) (UniProt P35916); experiment: Inhibition of human recombinant FLT4 in presence of ATP by Z-lyte kinase assay; conditions: concentration not given here
[41] = target: Ribosomal protein S6 kinase alpha-6 (Homo sapiens) (UniProt Q9UK32); experiment: Inhibition of human recombinant RSK4 in presence of ATP by Z-lyte kinase assay; conditions: concentration not given here
[42] = target: T1, Glycogen synthase kinase-3 beta; conditions: dose 700.0 nM
Description: Reversible inhibition of recombinant human GSK-3beta at 700 nM incubated with substrate and ATP master mix solution by jump dilution assays

[43] = Thiol reactivity of the compound with ethanethiol DTT by HPLC analysis; type: physicochemical
[44] = target: Mitogen-activated protein kinase 15 (Homo sapiens) (UniProt Q8TD08); experiment: Inhibition of human recombinant MAPK15 by Lanthascreen assay; conditions: concentration not given here
[45] = target: MAP kinase-interacting serine/threonine-protein kinase 2 (Homo sapiens) (UniProt Q9HBH9); experiment: Inhibition of human recombinant MNK2 by Lanthascreen assay; conditions: concentration not given here
[46] = target: Mitogen-activated protein kinase 3 (Homo sapiens) (UniProt P27361); experiment: Inhibition of human recombinant MAPK3 in presence of ATP by Z-lyte kinase assay; conditions: concentration not given here
[47] = target: T1, Glycogen synthase kinase-3 beta; conditions: dose 400.0 nM, time 4.5 hrs

Chain of Dual specificity mitogen-activated protein kinase kinase 1 (Homo sapiens) (Q02750 whole entry): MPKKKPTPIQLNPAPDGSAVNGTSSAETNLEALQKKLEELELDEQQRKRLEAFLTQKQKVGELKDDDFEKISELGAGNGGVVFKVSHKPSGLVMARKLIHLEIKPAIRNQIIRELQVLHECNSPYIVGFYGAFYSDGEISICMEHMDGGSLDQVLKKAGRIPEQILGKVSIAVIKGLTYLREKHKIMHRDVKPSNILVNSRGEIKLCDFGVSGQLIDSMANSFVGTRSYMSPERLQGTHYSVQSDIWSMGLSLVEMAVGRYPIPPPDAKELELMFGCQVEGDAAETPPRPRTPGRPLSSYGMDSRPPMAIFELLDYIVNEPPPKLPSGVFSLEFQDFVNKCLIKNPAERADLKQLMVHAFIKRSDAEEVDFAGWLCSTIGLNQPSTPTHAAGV
Chain of Dual specificity mitogen-activated protein kinase kinase 2 (Homo sapiens) (P36507 whole entry): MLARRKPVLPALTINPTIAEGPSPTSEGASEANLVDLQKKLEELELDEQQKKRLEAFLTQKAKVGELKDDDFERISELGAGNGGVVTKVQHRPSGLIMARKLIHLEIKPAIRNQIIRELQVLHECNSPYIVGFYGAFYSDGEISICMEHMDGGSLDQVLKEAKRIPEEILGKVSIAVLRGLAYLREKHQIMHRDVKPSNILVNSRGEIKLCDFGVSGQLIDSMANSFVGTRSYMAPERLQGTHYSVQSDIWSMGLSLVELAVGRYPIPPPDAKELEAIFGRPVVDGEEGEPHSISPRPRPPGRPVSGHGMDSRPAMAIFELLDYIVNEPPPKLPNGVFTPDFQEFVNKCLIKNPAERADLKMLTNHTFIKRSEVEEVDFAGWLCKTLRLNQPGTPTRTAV
Chain of Serine/threonine-protein kinase NLK (Homo sapiens) (Q9UBE8 whole entry): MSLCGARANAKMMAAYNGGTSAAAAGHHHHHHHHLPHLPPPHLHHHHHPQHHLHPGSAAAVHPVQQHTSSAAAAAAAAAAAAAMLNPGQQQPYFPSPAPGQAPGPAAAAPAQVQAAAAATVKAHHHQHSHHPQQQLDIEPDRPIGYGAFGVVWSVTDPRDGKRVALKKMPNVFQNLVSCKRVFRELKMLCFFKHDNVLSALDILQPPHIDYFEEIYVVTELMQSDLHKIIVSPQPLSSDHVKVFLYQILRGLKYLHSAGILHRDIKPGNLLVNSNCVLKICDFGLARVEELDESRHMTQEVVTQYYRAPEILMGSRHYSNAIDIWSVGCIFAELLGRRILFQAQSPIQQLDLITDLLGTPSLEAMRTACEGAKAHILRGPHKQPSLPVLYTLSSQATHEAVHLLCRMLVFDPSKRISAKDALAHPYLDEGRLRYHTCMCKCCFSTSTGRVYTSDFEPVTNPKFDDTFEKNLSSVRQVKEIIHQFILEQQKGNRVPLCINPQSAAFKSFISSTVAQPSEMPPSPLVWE
Chain of Mitogen-activated protein kinase kinase kinase 7 (Homo sapiens) (O43318 whole entry): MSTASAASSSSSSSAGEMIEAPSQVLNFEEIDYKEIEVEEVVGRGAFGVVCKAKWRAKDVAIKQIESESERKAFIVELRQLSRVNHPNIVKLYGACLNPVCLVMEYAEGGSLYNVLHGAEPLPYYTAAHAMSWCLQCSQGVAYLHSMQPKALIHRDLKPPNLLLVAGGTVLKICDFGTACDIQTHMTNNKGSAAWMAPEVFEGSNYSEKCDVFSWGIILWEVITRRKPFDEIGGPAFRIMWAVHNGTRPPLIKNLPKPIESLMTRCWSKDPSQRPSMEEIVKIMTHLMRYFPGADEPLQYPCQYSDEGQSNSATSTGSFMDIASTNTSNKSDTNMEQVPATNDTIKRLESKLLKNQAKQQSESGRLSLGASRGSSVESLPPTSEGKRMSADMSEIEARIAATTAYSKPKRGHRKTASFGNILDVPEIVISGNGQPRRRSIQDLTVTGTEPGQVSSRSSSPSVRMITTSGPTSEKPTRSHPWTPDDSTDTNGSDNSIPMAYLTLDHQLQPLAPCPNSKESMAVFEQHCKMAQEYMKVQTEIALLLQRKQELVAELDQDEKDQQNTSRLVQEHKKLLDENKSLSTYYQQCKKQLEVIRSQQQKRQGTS
Chain of Ribosomal protein S6 kinase alpha-6 (Homo sapiens) (Q9UK32 whole entry): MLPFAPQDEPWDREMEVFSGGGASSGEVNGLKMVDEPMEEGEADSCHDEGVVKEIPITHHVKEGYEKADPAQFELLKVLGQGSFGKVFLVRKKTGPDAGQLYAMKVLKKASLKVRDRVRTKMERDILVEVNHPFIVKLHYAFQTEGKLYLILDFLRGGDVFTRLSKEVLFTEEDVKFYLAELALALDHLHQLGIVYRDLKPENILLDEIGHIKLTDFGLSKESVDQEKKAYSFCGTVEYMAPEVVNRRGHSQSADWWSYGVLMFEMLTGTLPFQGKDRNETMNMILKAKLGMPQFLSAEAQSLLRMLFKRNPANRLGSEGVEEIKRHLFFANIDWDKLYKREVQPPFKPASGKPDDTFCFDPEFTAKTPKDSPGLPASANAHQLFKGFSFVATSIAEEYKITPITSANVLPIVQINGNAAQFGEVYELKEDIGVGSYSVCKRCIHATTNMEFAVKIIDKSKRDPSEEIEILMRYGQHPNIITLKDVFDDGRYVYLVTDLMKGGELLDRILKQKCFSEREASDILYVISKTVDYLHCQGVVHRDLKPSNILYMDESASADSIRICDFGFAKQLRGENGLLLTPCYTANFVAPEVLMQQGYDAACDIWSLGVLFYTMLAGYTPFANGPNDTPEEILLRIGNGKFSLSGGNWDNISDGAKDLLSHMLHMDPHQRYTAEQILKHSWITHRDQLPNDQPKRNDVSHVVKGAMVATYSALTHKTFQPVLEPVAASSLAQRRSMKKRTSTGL
Chain of MAP kinase-activated protein kinase 5 (Homo sapiens) (Q8IW41 whole entry): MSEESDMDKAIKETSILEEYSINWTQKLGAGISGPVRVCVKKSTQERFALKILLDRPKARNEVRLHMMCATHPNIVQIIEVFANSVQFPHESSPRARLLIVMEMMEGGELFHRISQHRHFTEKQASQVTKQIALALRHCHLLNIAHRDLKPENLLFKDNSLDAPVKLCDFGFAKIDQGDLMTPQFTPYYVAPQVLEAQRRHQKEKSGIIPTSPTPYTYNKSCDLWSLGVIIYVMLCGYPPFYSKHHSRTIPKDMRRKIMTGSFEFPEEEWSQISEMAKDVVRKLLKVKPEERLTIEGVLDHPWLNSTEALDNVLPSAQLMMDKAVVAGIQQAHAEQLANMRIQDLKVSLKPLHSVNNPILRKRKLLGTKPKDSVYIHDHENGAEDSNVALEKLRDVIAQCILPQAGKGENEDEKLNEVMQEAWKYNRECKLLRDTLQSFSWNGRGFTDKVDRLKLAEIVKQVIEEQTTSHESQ
Chain of TGF-beta receptor type-2 (Homo sapiens) (P37173 whole entry): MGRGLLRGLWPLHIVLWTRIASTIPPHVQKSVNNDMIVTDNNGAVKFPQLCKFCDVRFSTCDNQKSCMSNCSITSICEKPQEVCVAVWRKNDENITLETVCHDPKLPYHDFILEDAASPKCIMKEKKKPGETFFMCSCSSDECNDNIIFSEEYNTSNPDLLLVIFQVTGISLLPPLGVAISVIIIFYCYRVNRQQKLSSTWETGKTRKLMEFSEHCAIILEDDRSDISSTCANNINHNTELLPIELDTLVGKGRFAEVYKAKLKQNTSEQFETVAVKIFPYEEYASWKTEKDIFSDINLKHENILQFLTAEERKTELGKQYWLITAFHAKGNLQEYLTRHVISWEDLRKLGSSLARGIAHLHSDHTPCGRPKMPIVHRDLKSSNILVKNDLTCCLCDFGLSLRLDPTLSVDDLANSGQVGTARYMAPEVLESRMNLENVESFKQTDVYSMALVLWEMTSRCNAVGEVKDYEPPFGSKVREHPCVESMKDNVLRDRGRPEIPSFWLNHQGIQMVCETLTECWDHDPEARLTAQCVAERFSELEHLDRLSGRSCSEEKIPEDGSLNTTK

inhibition [1]: 7%
inhibition [2]: 11%
inhibition [3]: 4%
inhibition [4]: 9%
inhibition [5]: 5%
pIC50 [6]: 6.43
pIC50 [7]: 6.99
inhibition [8]: 0%
inhibition [9]: 21%
inhibition [10]: -2%
inhibition [11]: -2%
inhibition [12]: 3.2%
inhibition [13]: -2%
inhibition [14]: inactive
inhibition [15]: 29%
inhibition [16]: Tde
inhibition [17]: Active
inhibition [18]: inactive
inhibition [19]: 4%
inhibition [20]: 11%
inhibition [21]: 6%
inhibition [22]: 9%
inhibition [23]: 2%
inhibition [24]: 89%
inhibition [25]: 60%
inhibition [26]: Active
inhibition [27]: 24%
inhibition [28]: 10%
inhibition [29]: 91%
pIC50 [30]: 3.92
inhibition [31]: 1%
inhibition [32]: 24%
inhibition [33]: 11%
inhibition [34]: 7%
Drug metabolism [35]: Metabolite_Notdetected
inhibition [36]: 20%
inhibition [37]: 12%
inhibition [38]: 6%
inhibition [39]: Tde
inhibition [40]: 1.9%
inhibition [41]: 18%
inhibition [42]: inactive
Drug metabolism [43]: Metabolite_Notdetected
inhibition [45]: 1%
inhibition [46]: 26%
Compound: OC1(c2ccccc2)CSC(=S)N1Cc1ccncc1 (configuration not stated)
inhibition [44]: 26%

Compound: COc1cc(O)c2c(c1)[C@H]1O[C@@H]1C[C@H](O)[C@H](O)C(=O)/C=C\C[C@H](C)OC2=O [HYPOTHEMYCIN]
pIC50 [6]: 4.95
pIC50 [7]: 6.18
inhibition [14]: inactive
inhibition [18]: inactive
inhibition [42]: inactive

inhibition [47]: Active
Compound: O=C1Cc2c([nH]c3ccc([N+](=O)[O-])cc23)-c2ccccc2N1
